PubChem BioAssay (NCI)
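Where inhibition never reached the appropriate level, the endpoint shown equals the highest concentration tested. Otherwise, values were interpolated linearly from a five-concentration, 48-hour dose response in 96-well plates. GI50 marks 50% less growth. TGI marks complete inhibition of growth.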

Key:
Test in all cases: NCI-60 cell line screen, 48 h; in the data active = GI50 below about 0.43 µM; inactive = the rest
SW-620 colon = test system: SW-620 colon
EKVX NSCLC = test system: EKVX NSCLC
SK-MEL-28 melanoma = test system: SK-MEL-28 melanoma
T-47D breast = test system: T-47D breast
OVCAR-4 ovarian = test system: OVCAR-4 ovarian
ACHN renal = test system: ACHN renal
NCI-H23 lung = test system: NCI-H23 lung
A498 renal = test system: A498 renal
SK-OV-3 ovarian = test system: SK-OV-3 ovarian
OVCAR-8 ovarian = test system: OVCAR-8 ovarian
K-562 leukemia = test system: K-562 leukemia
PC-3 prostate = test system: PC-3 prostate
HS 578T breast = test system: HS 578T breast
SNB-19 CNS = test system: SNB-19 CNS
SNB-75 CNS = test system: SNB-75 CNS
BT-549 breast = test system: BT-549 breast
COLO 205 colon = test system: COLO 205 colon
HCT-116 colon = test system: HCT-116 colon
SN12C renal = test system: SN12C renal
DU-145 prostate = test system: DU-145 prostate
CAKI-1 renal = test system: CAKI-1 renal
NCI-H460 lung = test system: NCI-H460 lung
A549 NSCLC = test system: A549 NSCLC
CCRF-CEM leukemia = test system: CCRF-CEM leukemia
OVCAR-3 ovarian = test system: OVCAR-3 ovarian
SR leukemia = test system: SR leukemia
SF-295 CNS = test system: SF-295 CNS
HOP-62 NSCLC = test system: HOP-62 NSCLC
LOX IMVI melanoma = test system: LOX IMVI melanoma
786-0 renal = test system: 786-0 renal
NCI-H522 lung = test system: NCI-H522 lung
HT29 colon = test system: HT29 colon
MDA-MB-435 = test system: MDA-MB-435
HCC-2998 colon = test system: HCC-2998 colon
RPMI-8226 leukemia = test system: RPMI-8226 leukemia
IGROV1 ovarian = test system: IGROV1 ovarian
SK-MEL-5 melanoma = test system: SK-MEL-5 melanoma
HCT-15 colon = test system: HCT-15 colon
MDA-MB-231 breast = test system: MDA-MB-231 breast
MDA-N = test system: MDA-N
SF-268 CNS = test system: SF-268 CNS
UO-31 renal = test system: UO-31 renal
MCF7 breast = test system: MCF7 breast
NCI/ADR-RES ovarian = test system: NCI/ADR-RES ovarian
MALME-3M melanoma = test system: MALME-3M melanoma
UACC-62 melanoma = test system: UACC-62 melanoma
M14 melanoma = test system: M14 melanoma
U251 CNS = test system: U251 CNS
SK-MEL-2 melanoma = test system: SK-MEL-2 melanoma
MOLT-4 leukemia = test system: MOLT-4 leukemia
OVCAR-5 ovarian = test system: OVCAR-5 ovarian
RXF 393 renal = test system: RXF 393 renal
NCI-H226 lung = test system: NCI-H226 lung
SF-539 CNS = test system: SF-539 CNS
UACC-257 melanoma = test system: UACC-257 melanoma
TK-10 renal = test system: TK-10 renal
HL-60(TB) leukemia = test system: HL-60(TB) leukemia
HOP-92 NSCLC = test system: HOP-92 NSCLC
KM12 colon = test system: KM12 colon

N#C[C@@H](c1ccccn1)c1ncccc1[N+](=O)[O-]
> 100 µM: TGI (SW-620 colon) | TGI (EKVX NSCLC) | TGI (SK-MEL-28 melanoma) | TGI (T-47D breast) | TGI (OVCAR-4 ovarian) | TGI (ACHN renal) | TGI (NCI-H23 lung) | TGI (A498 renal) | TGI (SK-OV-3 ovarian) | TGI (OVCAR-8 ovarian) | TGI (K-562 leukemia) | TGI (PC-3 prostate) | TGI (HS 578T breast) | TGI (SNB-19 CNS) | TGI (SNB-75 CNS) | TGI (BT-549 breast) | TGI (COLO 205 colon) | TGI (HCT-116 colon) | TGI (SN12C renal) | TGI (DU-145 prostate) | TGI (CAKI-1 renal) | TGI (NCI-H460 lung) | TGI (A549 NSCLC) | TGI (CCRF-CEM leukemia) | TGI (OVCAR-3 ovarian) | TGI (SR leukemia) | TGI (SF-295 CNS) | TGI (HOP-62 NSCLC) | TGI (LOX IMVI melanoma) | TGI (786-0 renal) | TGI (NCI-H522 lung) | TGI (HT29 colon) | TGI (MDA-MB-435) | TGI (HCC-2998 colon) | TGI (RPMI-8226 leukemia) | TGI (IGROV1 ovarian) | TGI (SK-MEL-5 melanoma) | TGI (HCT-15 colon) | TGI (MDA-MB-231 breast) | TGI (MDA-N) | TGI (SF-268 CNS) | TGI (UO-31 renal) | TGI (MCF7 breast) | TGI (NCI/ADR-RES ovarian) | TGI (MALME-3M melanoma) | TGI (UACC-62 melanoma) | TGI (M14 melanoma) | TGI (U251 CNS) | TGI (SK-MEL-2 melanoma) | TGI (MOLT-4 leukemia) | TGI (OVCAR-5 ovarian) | TGI (RXF 393 renal)

COc1ccc(C[N+](C)(C)N)cc1OC
inactive: GI50 (SW-620 colon) > 100 µM | GI50 (SK-MEL-28 melanoma) > 100 µM | GI50 (SF-539 CNS) > 100 µM | GI50 (OVCAR-4 ovarian) > 100 µM | GI50 (ACHN renal) > 100 µM | GI50 (NCI-H23 lung) > 100 µM | GI50 (SK-OV-3 ovarian) > 100 µM | GI50 (UACC-257 melanoma) > 100 µM | GI50 (OVCAR-8 ovarian) > 100 µM | GI50 (PC-3 prostate) > 100 µM | GI50 (TK-10 renal) > 100 µM | GI50 (HS 578T breast) > 100 µM | GI50 (SNB-19 CNS) > 100 µM | GI50 (SNB-75 CNS) > 100 µM | GI50 (BT-549 breast) > 100 µM | GI50 (HL-60(TB) leukemia) > 100 µM | GI50 (COLO 205 colon) > 100 µM | GI50 (HCT-116 colon) > 100 µM | GI50 (SN12C renal) > 100 µM | GI50 (DU-145 prostate) > 100 µM | GI50 (CAKI-1 renal) > 100 µM | GI50 (A549 NSCLC) > 100 µM | GI50 (CCRF-CEM leukemia) > 100 µM | GI50 (OVCAR-3 ovarian) > 100 µM | GI50 (SR leukemia) > 100 µM | GI50 (SF-295 CNS) > 100 µM | GI50 (HOP-62 NSCLC) > 100 µM | GI50 (LOX IMVI melanoma) > 100 µM | GI50 (786-0 renal) > 100 µM | GI50 (NCI-H522 lung) > 100 µM | GI50 (HT29 colon) > 100 µM | GI50 (MDA-MB-435) > 100 µM | GI50 (RPMI-8226 leukemia) > 100 µM | GI50 (SK-MEL-5 melanoma) > 100 µM | GI50 (HCT-15 colon) > 100 µM | GI50 (MDA-MB-231 breast) > 100 µM | GI50 (MDA-N) > 100 µM | GI50 (SF-268 CNS) > 100 µM | GI50 (MCF7 breast) > 100 µM | GI50 (HOP-92 NSCLC) > 100 µM | GI50 (NCI/ADR-RES ovarian) > 100 µM | GI50 (MALME-3M melanoma) > 100 µM | GI50 (M14 melanoma) > 100 µM | GI50 (KM12 colon) > 100 µM | GI50 (U251 CNS) > 100 µM | GI50 (MOLT-4 leukemia) > 100 µM | GI50 (OVCAR-5 ovarian) > 100 µM
> 100 µM: TGI (SW-620 colon) | TGI (NCI-H226 lung) | TGI (EKVX NSCLC) | TGI (SK-MEL-28 melanoma) | TGI (SF-539 CNS) | TGI (OVCAR-4 ovarian) | TGI (ACHN renal) | TGI (NCI-H23 lung) | TGI (A498 renal) | TGI (SK-OV-3 ovarian) | TGI (UACC-257 melanoma) | TGI (OVCAR-8 ovarian) | TGI (K-562 leukemia) | TGI (PC-3 prostate) | TGI (TK-10 renal) | TGI (HS 578T breast) | TGI (SNB-19 CNS) | TGI (SNB-75 CNS) | TGI (BT-549 breast) | TGI (HL-60(TB) leukemia) | TGI (COLO 205 colon) | TGI (HCT-116 colon) | TGI (SN12C renal) | TGI (DU-145 prostate) | TGI (CAKI-1 renal) | TGI (NCI-H460 lung) | TGI (A549 NSCLC) | TGI (CCRF-CEM leukemia) | TGI (OVCAR-3 ovarian) | TGI (SR leukemia) | TGI (SF-295 CNS) | TGI (HOP-62 NSCLC) | TGI (LOX IMVI melanoma) | TGI (786-0 renal) | TGI (NCI-H522 lung) | TGI (HT29 colon) | TGI (MDA-MB-435) | TGI (RPMI-8226 leukemia) | TGI (IGROV1 ovarian) | TGI (SK-MEL-5 melanoma) | TGI (HCT-15 colon) | TGI (MDA-MB-231 breast) | TGI (MDA-N) | TGI (SF-268 CNS) | TGI (UO-31 renal) | TGI (MCF7 breast) | TGI (HOP-92 NSCLC) | TGI (NCI/ADR-RES ovarian) | TGI (MALME-3M melanoma) | TGI (UACC-62 melanoma) | TGI (M14 melanoma) | TGI (KM12 colon) | TGI (U251 CNS) | TGI (SK-MEL-2 melanoma) | TGI (MOLT-4 leukemia) | TGI (OVCAR-5 ovarian) | TGI (RXF 393 renal)
